Source: patent publication US20110045032A1 (priority 2001, published 2011)

Assays:
[1] = tested on: dust mite-sensitized cynomolgus monkeys; test: BALF cell count after allergen challenge (Example 24); type: in vivo; conditions: for total leukocytes in BALF: DHEA-S treatment group
Procedure: This study defines the effect of 5 days of treatment with DHEA-S on allergen-induced early phase response, and pulmonary inflammation in dust mite-sensitized cynomolgus monkeys. Baseline parameters were measured the week prior to treatment. DHEA-S (5 mg/ml, 2 ml nebulized) or an equivalent volume of saline was delivered once per day via nebulization (Pari LC+) through a canine facemask covering the nose and mouth on days 1 through 5. Allergen challenge and pulmonary function testing were performed on day 3 several hours after drug treatment, and broncho-alveolar lavage fluid BALF) was collected 48 hours post-challenge. The study includes 6 animals studied under a crossover design with a minimum of 4 weeks rest between study arms. The treatment with DHEA-S led to the following changes in the disease status of the animals: […]

[2] = tested on: dust mite-sensitized rabbits; test: Pulmonary function after allergen challenge, intratracheal powder (Example 25); type: in vivo
Procedure: (§1) This study defines the effect of 7 days of treatment with DHEA-S on allergen-induced bronchial hyperresponsiveness (BHR), early and late phase responses, and pulmonary inflammation in dust mite-sensitized rabbits. Baseline BHR and inflammation were first determined. The following week, allergen challenge, pulmonary function testing and BALF were performed on the untreated rabbits. Histamine sensitivity was determined 24 hours post allergen challenge. Rabbits were rested for 3 weeks then baseline values were re-established. The following week, DHEA-S (5 mg/day) was delivered once a day for 7 days via an intratracheal powder injector through the endrotracheal tube of the anesthetized rabbit. On day 8, 24 hrs after the last treatment, allergen challenge, pulmonary function testing and BALF were performed as previously. On day 9, 24 hrs after allergen challenge, a histamine challenge was performed. The drug was not micronized prior to use thus only a portion of the administered date was expected to reach the deep lung. The study includes 4 animals studied under a crossover design. The treatment with DHEA-S led to changes in the disease status of the animals that are described in the following paragraph.
Effects on airway obstruction were measured by changes in dynamic compliance and total lung resistance in response to allergen challenge. Rabbits were monitored for 6 hours following allergen challenge and the values plotted against time. Changes in dynamic compliance were determined by the % change in compliance as compared to the animal's initial saline value recorded prior to challenge. Changes in response to allergen and/or treatment were calculated using the area under the curve (AUC) where an AUC unit is defined as % change×hour. Treatment with DHEA-S attenuated the drop in airway compliance following allergen challenge by 86% as compared to allergen alone. Following allergen alone the total AUC was −146 units compared to −20 units for animals treated with DHEA-S. This difference in the total AUC for vehicle and DHEA-S treated animals was determined to be significant using Student's t-test for paired observations, p=0.036. Similarly, treatment with DHEA-S attenuated the increase in airway resistance following allergen challenge by 54% as compared to allergen alone. […] Variability during the late phase kept differences in AUC between the vehicle and drug treatment groups from being significant when analyzed using a paired t-test.

[3] = tested on: dust mite-sensitized rabbits; test: BALF cell counts, intratracheal powder (Example 25); type: in vivo
Procedure: as §1

[4] = tested on: dust mite-sensitized rabbits; test: Pulmonary function after allergen challenge, nebulized (Example 26); type: in vivo
Procedure: (§2) This study defines the effect of 7 days of treatment with DHEA-S on allergen-induced bronchial hyperresponsiveness (BHR), early and late phase responses, and pulmonary inflammation in dust mite-sensitized rabbits. Baseline BHR and inflammation were first determined. DHEA-S (5 mg/ml, 2 ml nebulized) or an equivalent volume of vehicle was delivered once per day via nebulization through a pediatric facemask covering the nose and mouth on days 1 through 7. On day 8, 24 hours after the last treatment, allergen challenge, pulmonary function testing and BALF were performed. On day 9, 24 hours after allergen challenge a histamine challenge was performed and the lungs removed for histology. The study includes 5 animals studied under a crossover design. There was a 3 week resting period between study arms and lungs were taken during the second treatment arm only. The treatment with DHEA-S led to the changes in the disease status of the animals described in the following paragraph.
Effects on airway obstruction were measured by changes in dynamic compliance and total lung resistance in response to allergen challenge. Rabbits were monitored for 6 hours following allergen challenge and the values plotted against time. Changes in dynamic compliance were determined by the % change in compliance as compared to the animal's initial saline value recorded prior to challenge. Changes in response to allergen and/or treatment were calculated using the AUC where an AUC unit is defined as % change×hour. Treatment with DHEA-S attenuated the drop in airway compliance following allergen challenge by 62% as compared to vehicle treatment. […] Variability during the early phase kept differences in AUC between the vehicle and drug treatment groups from being significant when analyzed using a paired t-test.

[5] = Serum and BAL DHEA and DHEA-S levels (Example 26); type: in vivo, rabbits; conditions: rabbit, serum, inhaled, 10 mg/day; twenty-four hours after the last of seven daily treatments; prior 4.7
Procedure: as §2

ragweed-sensitized mice = test: BAL cell populations after methacholine challenge (Example 28); type: in vivo; conditions: Ragweed alone 13.8%; P<0.05
Procedure: Two groups of mice were sensitized with two intraperitoneal injections and one intranasat administration of ragweed allergen (Ambrosia artemistifolia) on days 0, 4 and 11 respectively. A third group was treated similarly with saline to serve as non-allergic controls. The next two days, the treatment group animals were exposed to DHEA-S delivered as an aerosol (5 mg/ml suspension in saline, 2 ml nebulized) using the whole-body plethysmograph system (Buxco Electronics, Inc., Sharon, Conn.) and a DeVilbiss ultrasonic nebulizer. Twenty-four hours after the last drug exposure, mice were challenged with increasing concentrations of methacholine to determine bronchial hyperresponsiveness and then lavaged to determine relative changes in cell populations in BAL fluid.

[6] = Acute inhalation toxicity in rats; type: in vivo; conditions: rat, in vivo, inhaled; preclinical toxicology studies; not achieved at this dose; read-out: maximum tolerated dose
Procedure: (§3) Other findings were minor in nature and detailed in the reports that follow. Therefore, nebulization of an aqueous solution was determined to be feasible but not practical due to the inability to achieve a sufficient safety factor to support clinical trials.

rats = test: Acute inhalation toxicity in rats; type: in vivo; conditions: inhalation
Procedure: as §3

[7] = 48 hours after allergen challenge, compared to saline
[8] = in the 6 hours after aerosol dust mite challenge

## CC12CCC3C(CC=C4CC(OS(=O)(=O)[O-])CCC43C)C1CCC2=O.[Na+] (stereo not drawn) [DHEA-S, Dehydroepiandrosterone sulfate]
[1]; [7]
  decrease of % eosinophils in BALF: approximately 57%
  decrease of percentage of neutrophils in BALF: 42%
[1]; 48 hours after allergen challenge, did not reach significance
  eosinophil numbers in BALF less than saline: approximately 64%
[1]; 48 hours after allergen challenge, saline 4.3±1.7
  eosinophil numbers in BALF: 1.6±0.8 ×10^4 cells/ml
[1]; 48 hours after allergen challenge
  total leukocytes in BALF: 39.4 ×10^4 cell/ml
[1]; before allergen challenge
  total leukocytes in BALF: 34.5 ×10^4 cell/ml
[1]; after allergen challenge
  absolute number of neutrophils in BALF: 9.7±2.2 ×10^4 cells/ml
[1]; cynomolgus monkey, in vivo
  neutrophil influx level vs pre-challenge: not significantly higher than pre-challenge levels
  percentage of eosinophils before and after allergen challenge: not significantly different
[2]; 5 mg/day intratracheal powder, 7 days, compared to allergen alone
  attenuation of the drop in airway compliance following allergen challenge: 86%
[2]; 6 hours, control 1069±243, not significant
  total area under the curve for the change in resistance following allergen challenge: 495
[2]; AUC unit = % change×hour, 6 hours, control −146±29
  total area under the curve for the change in compliance following allergen challenge: −20 units
[2]; compared to allergen alone
  attenuation of the increase in airway resistance following allergen challenge: 54%
[2]; [8]
  reduction of airway resistance changes: over 200%
[2]; inhaled or nasal, 6 h
  total area under the curve for the change in compliance following allergen challenge: −20±23 units
[2]; rabbit, in vivo
  24-hour histamine responsiveness following allergen challenge: downward shift
[3]; 15 minutes after dust mite challenge, control 10.2
  neutrophils in BALF: 1.3 ×10^4 cells/ml
[3]; 15 minutes after dust mite challenge, control 29.6
  macrophages in BALF: 19.4 ×10^4 cells/ml
[3]; 6 hours after challenge, control 43.8
  neutrophils in BALF: 32.2 ×10^4 cells/ml
[3]; 24 hours after allergen challenge, control 3.2
  eosinophils in BALF: 2.0 ×10^4 cells/ml
[3]; 24 hours after allergen challenge, control 24.1
  macrophages in BALF: 17.8 ×10^4 cells/ml
[3]; at 24 hours
  inhibition of eosinophils: slight mean inhibition
[4]; 6 hours, control 315
  total AUC for airway resistance: 377
[4]; 48 hours after the last administration, control 0.84
  PC50 histamine: 0.86 mg/mL
[4]; 7 days of treatment via facemask, qualitative
  tolerance of pulmonary function testing and histamine challenges: better than vehicle-treated animals
[4]; [8]
  effect on airway resistance changes: no significant effect
[4]; nebulized 5 mg/ml, 2 ml once per day, 7 days, compared to vehicle treatment
  attenuation of the drop in airway compliance following allergen challenge: 62%
[4]; rabbit, in vivo
  nasal congestion following histamine and dust mite challenges: no evidence of nasal congestion
[5]
  concentration at 24 h after the last dose: 49 ng/mL
ragweed-sensitized mice
  percent neutrophils in BAL: 3.2%
[6]
  MTD: > 11 mg/kg/day
rats
  maximum tolerated dose: could not be achieved
rats; up to the maximum feasible dose
  adverse effects to the respiratory tract: did not produce any adverse affects
